Earlier results, collected in US20180373846A1, “METHODS AND SYSTEMS FOR ORGANIC SOLUTE SAMPLING OF AQUEOUS AND HETEROGENEOUS ENVIRONMENTS” (University of Maryland, Baltimore, priority 2014, published 2018).

Columns and labels:
[1] = Table 2, reference 31
[2] = experimental hydration free energy
[3] = target: T4-L99A (Enterobacteria phage T4, UniProt P00720, L99A)
[4] = target: β2AR (Homo sapiens, UniProt P07550); settings: experimental, from cited references

Compound	HFE^fep [1] [kcal/mol]	HFE^exp [2] [kcal/mol]	experimental binding affinity [3] [kcal/mol]	ΔGbind [4]
CC=O [Acetaldehyde, acetaldehyde]	-4.43	-3.5		
CC(=O)O [Acetate]	-96.5	-79.1		
c1ccccc1 [Benzene, benzene]	-0.71	-0.83	-5.19 ± 0.16	
NC=O [Formamide, formamide]	-10.71	-14		
c1c[nH]cn1 [Imidazole, imidazole]	-12.55			
CO [Methanol, methanol]	-6.16	-5.1		
CN [Methylammonium, methylammonium]	-52.0	-71.3		
Nc1c(Cl)cc([C@@H](O)CNCCCCCCOCCc2ccccn2)cc1Cl [Picumeterol]				−12.23
CC(C)NCC(O)COc1cccc2[nH]ccc12 (centres unmarked) [Pindolol]				−12.43
CCC [Propane, propane]	1.60	1.96		
O [Water, water]		-5.6		
Hydroxybenzyl isoproterenol				−9.72
